Values quoted from earlier work, collected in patent publication US9717704B2, “Method of treating, delaying and/or preventing Alzheimer's Disease” (Smartfish AS, priority 2013, dated 2017).

Legend:
[1] = test system: PBMCs / macrophages of AD patients; details: in vitro (Mizwicki et al. 2013)
amyloid-beta = details: cell lines (Marambaud, Zhao et al. 2005)

In the case of `C=C1/C(=C\C=C2/CCC[C@]3(C)[C@@H]([C@H](C)CCCC(C)(C)O)CC[C@@H]23)C[C@@H](O)C[C@@H]1O` [1,25dihydroxyvitamin D3], the Abeta phagocytosis [1] is listed as “repair” and the “deregulation of inflammatory genes” value [1] is listed as “repair the deregulation of these genes”.
For `Oc1ccc(/C=C/c2cc(O)cc(O)c2)cc1` [Resveratrol, 3,5,4′-trihydroxy-trans-stilbene], the “proteasome degradation of amyloid-beta” value (amyloid-beta) is listed as “promote proteasome degradation of amyloid-beta”.
In the case of `CC/C=C\C[C@H](O)/C=C/C=C\C=C\C=C\[C@@H](O)[C@@H](O)C/C=C\CCC(=O)O` [resolvin D1], the Abeta phagocytosis [1] is listed as “repair” and the “deregulation of inflammatory genes” value [1] is listed as “repair the deregulation of these genes”.
